# Laboratory results published in US20180244611A1, “Modulators of the Cystic Fibrosis Transmembrane Conductance Regulator Protein and Methods of Use” (AbbVie S.à.r.l., priority 2017, published 2018).
# What was measured:
# [1] = molecular target: T1, F508delCFTR (Homo sapiens, UniProt P13569, DEL508-508); test: Cell Surface Expression-Horse Radish Peroxidase (CSE-HRP) assay, test compound with co-corrector; format: cell-based; conditions: with 2 μM co-corrector; for Maximum % activity (with co-corrector): maximum at any tested concentration, normalized to positive control;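 as to Maximum % activity (with co-corrector): percent of 2 µM positive control corrector over DMSO; co-corrector is that same compound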
# T1 construct: expressed in transfected cells; host or cells: CFBE41o- human lung-derived epithelial cells (CFBE41o-F508delCFTR-HRP), doxycycline-inducible
# T1 sequence (P13569 with tags, fused parts or gaps DEL508-508): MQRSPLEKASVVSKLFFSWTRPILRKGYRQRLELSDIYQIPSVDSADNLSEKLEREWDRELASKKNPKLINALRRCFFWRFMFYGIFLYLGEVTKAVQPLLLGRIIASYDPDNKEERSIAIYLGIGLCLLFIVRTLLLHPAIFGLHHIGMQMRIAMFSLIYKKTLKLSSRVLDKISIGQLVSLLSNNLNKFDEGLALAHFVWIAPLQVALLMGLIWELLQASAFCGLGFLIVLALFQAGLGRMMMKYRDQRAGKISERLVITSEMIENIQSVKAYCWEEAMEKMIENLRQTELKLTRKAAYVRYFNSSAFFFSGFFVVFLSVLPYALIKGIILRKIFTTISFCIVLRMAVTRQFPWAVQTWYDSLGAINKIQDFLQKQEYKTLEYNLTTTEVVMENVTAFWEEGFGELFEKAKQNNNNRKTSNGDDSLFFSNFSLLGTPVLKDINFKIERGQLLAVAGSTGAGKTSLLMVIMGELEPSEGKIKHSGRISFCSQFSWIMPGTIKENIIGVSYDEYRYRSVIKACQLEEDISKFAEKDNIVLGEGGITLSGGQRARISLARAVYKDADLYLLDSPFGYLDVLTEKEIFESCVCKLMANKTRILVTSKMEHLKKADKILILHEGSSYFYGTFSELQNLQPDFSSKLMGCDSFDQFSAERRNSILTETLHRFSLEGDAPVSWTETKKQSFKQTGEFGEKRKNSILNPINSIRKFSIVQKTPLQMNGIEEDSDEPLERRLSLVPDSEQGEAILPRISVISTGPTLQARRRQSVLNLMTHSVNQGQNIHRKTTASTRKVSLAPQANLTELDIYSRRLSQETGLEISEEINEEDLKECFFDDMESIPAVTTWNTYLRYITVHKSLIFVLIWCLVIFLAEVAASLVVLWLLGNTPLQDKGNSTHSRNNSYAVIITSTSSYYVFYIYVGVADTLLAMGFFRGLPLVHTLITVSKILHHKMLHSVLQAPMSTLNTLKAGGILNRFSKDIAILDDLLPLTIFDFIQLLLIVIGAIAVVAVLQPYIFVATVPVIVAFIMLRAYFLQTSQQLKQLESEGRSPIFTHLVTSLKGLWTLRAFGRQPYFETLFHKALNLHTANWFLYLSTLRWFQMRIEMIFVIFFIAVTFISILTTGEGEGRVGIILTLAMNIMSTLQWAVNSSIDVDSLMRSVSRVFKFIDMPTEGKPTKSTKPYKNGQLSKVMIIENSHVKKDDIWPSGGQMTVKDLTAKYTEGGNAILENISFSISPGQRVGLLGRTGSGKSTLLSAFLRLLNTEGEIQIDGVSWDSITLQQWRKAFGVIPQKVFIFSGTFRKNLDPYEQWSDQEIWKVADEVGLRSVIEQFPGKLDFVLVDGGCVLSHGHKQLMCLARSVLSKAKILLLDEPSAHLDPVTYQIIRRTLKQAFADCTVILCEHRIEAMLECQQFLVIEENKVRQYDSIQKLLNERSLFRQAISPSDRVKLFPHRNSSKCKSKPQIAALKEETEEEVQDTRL
# How it was run: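 Surface-expression read-out: luminol luminescence from an HRP tag in the fourth exofacial loop of F508delCFTR, in doxycycline-induced (0.5 μg/mL, 72 h) CFBE41o- cells. Compound plus 2 μM co-corrector added for 18-24 h at 33° C., 8-point 3-fold series up to 20 μM. EC50 from a sigmoidal fit with variable Hill slope, normalised to positive control, triplicate plates.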
# [2] = molecular target: T1, F508delCFTR; test: Cell Surface Expression-Horse Radish Peroxidase (CSE-HRP) assay, test compound without co-corrector; format: cell-based; conditions: for Emax: maximum at any tested concentration, normalized to positive control, without co-corrector; for EC50: test compound without co-corrector;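 as to Emax: percent of on-plate 2 µM positive control corrector response over DMSO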
# How it was run: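 Compound without co-corrector was tested at eight 3-fold concentrations, top 20 μM, for 18-24 h at 33° C on doxycycline-induced (0.5 μg/mL, 72 h) CFBE41o- F508delCFTR-HRP cells. After DPBS washes, luminol luminescence gave % activity relative to on-plate positive control minus DMSO; EC50 came from triplicate-plate sigmoidal fitting.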
Structure (SMILES),Maximum % activity (with co-corrector) [1],EC50 [1],Emax [2],EC50 [2]
COc1cccc2c1CCC2C(=O)NS(=O)(=O)c1ccc(NC(=O)CC(C)=O)cc1 (centres unmarked) [III-36],+ (<150),≥ 10 µM,< 50%,≥ 10 µM
COc1cccc2c1CCC2C(=O)NS(=O)(=O)c1ccc(Cl)cc1Cl (centres unmarked) [III-37],+ (<150),≥ 10 µM,< 50%,≥ 10 µM
COc1cccc2c1CCC2C(=O)NS(=O)(=O)c1cc(C)ccc1Cl (centres unmarked) [III-39],+ (<150),≥ 10 µM,< 50%,≥ 10 µM
COc1cccc2c1CCC2C(=O)NS(=O)(=O)c1cc([N+](=O)[O-])ccc1Cl (centres unmarked) [III-40],+ (<150),≥ 10 µM,< 50%,≥ 10 µM
COc1cccc2c1CCC2C(=O)NS(=O)(=O)c1ccc(NC(C)=O)cc1 (centres unmarked) [III-41],+ (<150),≥ 10 µM,< 50%,≥ 10 µM
COc1cccc2c1CCC2C(=O)NS(=O)(=O)c1ccc(NC(C)=O)cc1Cl (centres unmarked) [III-42],+ (<150),≥ 10 µM,< 50%,≥ 10 µM
CCCC(=O)Nc1ccc(S(=O)(=O)NC(=O)C2CCc3c(OC)cccc32)cc1 (centres unmarked) [III-43],+ (<150),≥ 10 µM,< 50%,≥ 10 µM
COc1cccc2c1CCC2C(=O)NS(=O)(=O)c1c(C)nn(C)c1Cl (centres unmarked) [III-44],+ (<150),≥ 10 µM,< 50%,≥ 10 µM
COc1cccc2c1CCC2C(=O)NS(=O)(=O)c1c(C)nc(O)nc1O (centres unmarked) [III-45],+ (<150),≥ 10 µM,< 50%,≥ 10 µM
COc1cccc2c1CCC2C(=O)NS(=O)(=O)c1ccc(C#N)cc1 (centres unmarked) [III-46],+ (<150),≥ 10 µM,< 50%,≥ 10 µM
COc1cccc2c1CCC2C(=O)NS(=O)(=O)c1ccc2oc(=O)ccc2c1 (centres unmarked) [III-47],+ (<150),≥ 10 µM,< 50%,≥ 10 µM
CCOC(=O)c1ccc(S(=O)(=O)NC(=O)C2CCc3c(OC)cccc32)cc1 (centres unmarked) [III-48],+ (<150),≥ 10 µM,< 50%,≥ 10 µM
COc1cccc2c1CCC2C(=O)NS(=O)(=O)c1cc(C(=O)Nc2c(C)cccc2C)c(O)cc1Cl (centres unmarked) [III-50],+ (<150),≥ 10 µM,< 50%,≥ 10 µM
COc1cccc2c1CCC2C(=O)NS(=O)(=O)c1c(C)nn(CCCl)c1C (centres unmarked) [III-51],+ (<150),≥ 10 µM,< 50%,≥ 10 µM
CCN1CCC[C@H]1CNC(=O)c1cc(S(=O)(=O)NC(=O)C2CCc3c(OC)cccc32)ccc1OC (some centres unmarked) [III-52],+ (<150),≥ 10 µM,< 50%,≥ 10 µM
CCOc1ccc2nc(S(=O)(=O)NC(=O)C3CCc4c(OC)cccc43)sc2c1 (centres unmarked) [III-53],+ (<150),≥ 10 µM,< 50%,≥ 10 µM
CCCCCC(=O)c1ccc(S(=O)(=O)NC(=O)C2CCc3c(OC)cccc32)cc1 (centres unmarked) [III-54],+ (<150),≥ 10 µM,< 50%,≥ 10 µM

# Continued, values first:
Maximum % activity (with co-corrector) [1],EC50 [1],Emax [2],EC50 [2],Structure (SMILES)
+ (<150),≥ 10 µM,< 50%,≥ 10 µM,Cc1ccc(S(=O)(=O)NC(=O)C2CCc3c(Cl)cccc32)nc1 (centres unmarked) [III-19]
+ (<150),≥ 10 µM,< 50%,≥ 10 µM,COc1cccc2c1CCC2C(=O)NS(=O)(=O)c1ccc(O)cc1 (centres unmarked) [III-20]
+ (<150),≥ 10 µM,< 50%,≥ 10 µM,COc1cccc2c1CCC2C(=O)NS(=O)(=O)Cc1ccccc1 (centres unmarked) [III-21]
+ (<150),≥ 10 µM,< 50%,≥ 10 µM,COc1cccc2c1CCC2C(=O)NS(=O)(=O)c1ccc2cc(O)ccc2c1 (centres unmarked) [III-22]
++ (≥150 and <350),3 to 10 µM,< 50%,3 to 10 µM,COc1cccc2c1CCC2C(=O)NS(=O)(=O)c1ccc(C)cc1 (centres unmarked) [III-23]
+ (<150),≥ 10 µM,< 50%,≥ 10 µM,COc1cccc2c1CCC2C(=O)NS(=O)(=O)c1nnc(NC(C)=O)s1 (centres unmarked) [III-24]
+ (<150),3 to 10 µM,< 50%,≥ 10 µM,COc1cccc2c1CCC2C(=O)NS(=O)(=O)c1cc(C)ccc1C(C)C (centres unmarked) [III-25]
+ (<150),≥ 10 µM,< 50%,≥ 10 µM,COc1cccc2c1CCC2C(=O)NS(=O)(=O)c1ccc(S(C)(=O)=O)cc1 (centres unmarked) [III-26]
+ (<150),≥ 10 µM,< 50%,≥ 10 µM,COc1cccc2c1CCC2C(=O)NS(=O)(=O)c1cccc([N+](=O)[O-])c1 (centres unmarked) [III-27]
+ (<150),≥ 10 µM,< 50%,≥ 10 µM,COc1cccc2c1CCC2C(=O)NS(=O)(=O)c1ccc(Cl)c([N+](=O)[O-])c1 (centres unmarked) [III-28]
+ (<150),≥ 10 µM,< 50%,≥ 10 µM,COc1cccc2c1CCC2C(=O)NS(=O)(=O)c1cc([N+](=O)[O-])ccc1C (centres unmarked) [III-30]
+ (<150),≥ 10 µM,< 50%,≥ 10 µM,COc1cccc2c1CCC2C(=O)NS(=O)(=O)c1ccc(NC(C)=O)cc1C (centres unmarked) [III-31]
+ (<150),≥ 10 µM,< 50%,≥ 10 µM,COc1cccc2c1CCC2C(=O)NS(=O)(=O)c1ccc(Cl)cc1 (centres unmarked) [III-32]
++ (≥150 and <350),< 3 µM,< 50%,≥ 10 µM,COc1cccc2c1CCC2C(=O)NS(=O)(=O)c1ccc(Cl)cc1[N+](=O)[O-] (centres unmarked) [III-33]
+ (<150),≥ 10 µM,< 50%,≥ 10 µM,COc1cccc2c1CCC2C(=O)NS(=O)(=O)c1ccc2ccccc2c1 (centres unmarked) [III-34]
++ (≥150 and <350),3 to 10 µM,< 50%,≥ 10 µM,COc1cccc2c1CCC2C(=O)NS(=O)(=O)c1cccc(Cl)c1 (centres unmarked) [III-35]
++ (≥150 and <350),3 to 10 µM,< 50%,≥ 10 µM,COc1cccc2c1CCC2C(=O)NS(=O)(=O)c1cc(C)c(N)cc1Cl (centres unmarked) [III-38]
++ (≥150 and <350),3 to 10 µM,< 50%,≥ 10 µM,COc1cccc2c1CCC2C(=O)NS(=O)(=O)c1ccc(C)c([N+](=O)[O-])c1C (centres unmarked) [III-49]
